Numbered stars: 1 amine (or outer) side, 2 acyl side, 3 side chain; on linkers, the order of the positions; unused ones are H or OH. Side chains are listed from the residue outwards. Peptide text beside a SMILES is read from it. * marks the point of attachment. C18 diacid = O=C(O)CCCCCCCCCCCCCCCCC(=O)*; γGlu = O=C(O)[C@H](CCC(=O)[*:2])N[*:1]; AEEA = NCCOCCOCC(=O)O
Experiment: Assay (II) PK i.v. minipig, in vivo half-life
Design: species or system Göttingen mini-pigs
Conditions: male, Göttingen, minipig, iv
In short: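 Plasma levels after a single 6 nmol/kg intravenous dose in five male Göttingen mini-pigs were measured by TFC/LC/MS/MS against spiked-plasma calibration, sampling to 240 h. Vehicle: 50 mM K2HPO4, 0.05% tween 80, pH 8.0. Individual profiles analysed non-compartmentally for half-life.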

With `CC[C@H](C)[C@H](NC(=O)[C@H](Cc1ccc(O)cc1)NC(=O)[C@H](CCCNC(=N)N)NC(=O)[C@H](CCCNC(=N)N)NC(=O)[C@H](CC(C)C)NC(=O)[C@H](CC(=O)O)NC(=O)[C@H](C)NC(=O)[C@H](C)NC(=O)[C@H](Cc1ccc(O)cc1)NC(=O)[C@H](CCC(N)=O)NC(=O)[C@H](C)NC(=O)[C@H](CCSC)NC(=O)[C@H](CCC(N)=O)NC(=O)[C@H](CCC(=O)O)NC(=O)[C@@H]1CCCN1C(=O)[C@@H](NC(=O)[C@H](C)NC(=O)[C@H](CC(N)=O)NC(=O)[C@H](CC(=O)O)NC(=O)CNC(=O)[C@@H]1CCCN1C(=O)[C@H](Cc1ccc(O)cc1)NC(=O)[C@@H](NC(=O)[C@@H]1CCCN1C(=O)[C@H](CCC(=O)O)NC(=O)[C@H](CC(C)C)NC(=O)[C@@H]1CCCN1C(=O)COCCOCCNC(=O)COCCOCCNC(=O)CC[C@H](NC(=O)CCCCCCCCCCCCCCCCC(=O)O)C(=O)O)C(C)C)[C@@H](C)O)C(=O)N[C@@H](CC(N)=O)C(=O)N[C@@H](CCSC)C(=O)N[C@@H](CC(C)C)C(=O)N[C@H](C(=O)N[C@@H](CCCNC(=N)N)C(=O)N1CCC[C@H]1C(=O)N[C@@H](CCCNC(=N)N)C(=O)N[C@@H](Cc1ccc(O)cc1)C(N)=O)[C@@H](C)O` [Compound AF] the “Half-life minipig, Assay (II)” value was 36 h.

Same assay, conditions: male, Göttingen, minipig, iv, Half-life minipig, Assay (II)

Going from `CC[C@H](C)[C@H](NC(=O)[C@H](Cc1ccc(O)cc1)NC(=O)[C@H](CCCNC(=N)N)NC(=O)[C@H](CCCNC(=N)N)NC(=O)[C@H](CC(C)C)NC(=O)[C@H](CC(=O)O)NC(=O)[C@H](C)NC(=O)[C@H](C)NC(=O)[C@H](Cc1ccc(O)cc1)NC(=O)[C@H](CCC(N)=O)NC(=O)[C@H](C)NC(=O)[C@H](CCSC)NC(=O)[C@H](CCC(N)=O)NC(=O)[C@H](CCC(=O)O)NC(=O)[C@@H]1CCCN1C(=O)[C@@H](NC(=O)[C@H](C)NC(=O)[C@H](CC(N)=O)NC(=O)[C@H](CC(=O)O)NC(=O)CNC(=O)[C@@H]1CCCN1C(=O)[C@H](Cc1ccc(O)cc1)NC(=O)[C@@H](NC(=O)[C@@H]1CCCN1C(=O)[C@H](CCC(=O)O)NC(=O)[C@H](CC(C)C)NC(=O)[C@@H]1CCCN1C(=O)COCCOCCNC(=O)COCCOCCNC(=O)CC[C@H](NC(=O)CCCCCCCCCCCCCCCCC(=O)O)C(=O)O)C(C)C)[C@@H](C)O)C(=O)N[C@@H](CC(N)=O)C(=O)N[C@@H](CCSC)C(=O)N[C@@H](CC(C)C)C(=O)N[C@H](C(=O)N[C@@H](CCCNC(=N)N)C(=O)N1CCC[C@H]1C(=O)N[C@@H](CCCNC(=N)N)C(=O)N[C@@H](Cc1ccc(O)cc1)C(N)=O)[C@@H](C)O` [Compound AF] to `CC[C@H](C)[C@H](NC(=O)[C@H](Cc1ccc(O)cc1)NC(=O)[C@H](CCCNC(=N)N)NC(=O)[C@H](CCCNC(=N)N)NC(=O)[C@H](CC(C)C)NC(=O)[C@H](CC(=O)O)NC(=O)[C@H](C)NC(=O)[C@H](C)NC(=O)[C@H](Cc1ccc(O)cc1)NC(=O)[C@H](CCC(N)=O)NC(=O)[C@H](C)NC(=O)[C@H](CCCCNC(=O)COCCOCCNC(=O)COCCOCCNC(=O)CC[C@H](NC(=O)CCCCCCCCCCCCCCCCC(=O)O)C(=O)O)NC(=O)[C@H](CCC(N)=O)NC(=O)[C@H](CCC(=O)O)NC(=O)[C@@H]1CCCN1C(=O)[C@@H](NC(=O)[C@H](C)NC(=O)[C@H](CC(N)=O)NC(=O)[C@H](CC(=O)O)NC(=O)CNC(=O)[C@@H]1CCCN1C(=O)[C@H](Cc1ccc(O)cc1)NC(=O)[C@@H](NC(=O)[C@@H]1CCCN1C(=O)[C@H](CCC(=O)O)NC(=O)[C@H](CC(C)C)NC(=O)[C@@H]1CCCN1)C(C)C)[C@@H](C)O)C(=O)N[C@@H](CC(N)=O)C(=O)N[C@@H](CCSC)C(=O)N[C@@H](CC(C)C)C(=O)N[C@H](C(=O)N[C@@H](CCCNC(=N)N)C(=O)N1CCC[C@H]1C(=O)N[C@@H](CCCNC(=N)N)C(=O)N[C@@H](Cc1ccc(O)cc1)C(N)=O)[C@@H](C)O` [Compound Q] (H-PLEPVYPGDNATPEQK([AEEA-AEEA-γGlu-C18 diacid])AQYAADLRRYINMLTRPRY-NH2; N-terminus and C-terminus assumed), the half-life rises from 33 h to 56 h (1.7-fold).

First: CC[C@H](C)[C@H](NC(=O)[C@H](Cc1ccc(O)cc1)NC(=O)[C@H](CCCNC(=N)N)NC(=O)[C@H](CCCNC(=N)N)NC(=O)[C@H](CC(C)C)NC(=O)[C@H](CC(=O)O)NC(=O)[C@H](C)NC(=O)[C@H](C)NC(=O)[C@H](Cc1ccc(O)cc1)NC(=O)[C@H](CCC(N)=O)NC(=O)[C@H](C)NC(=O)[C@H](CCSC)NC(=O)[C@H](CCC(N)=O)NC(=O)[C@H](CCC(=O)O)NC(=O)[C@@H]1CCCN1C(=O)[C@@H](NC(=O)[C@H](C)NC(=O)[C@H](CC(N)=O)NC(=O)[C@H](CC(=O)O)NC(=O)CNC(=O)[C@@H]1CCCN1C(=O)[C@H](Cc1ccc(O)cc1)NC(=O)[C@@H](NC(=O)[C@@H]1CCCN1C(=O)[C@H](CCCCNC(=O)COCCOCCNC(=O)COCCOCCNC(=O)CC[C@H](NC(=O)CCCCCCCCCCCCCCCCC(=O)O)C(=O)O)NC(=O)[C@@H](N)CC(C)C)C(C)C)[C@@H](C)O)C(=O)N[C@@H](CC(N)=O)C(=O)N[C@@H](CCSC)C(=O)N[C@@H](CC(C)C)C(=O)N[C@H](C(=O)N[C@@H](CCCNC(=N)N)C(=O)N1CCC[C@H]1C(=O)N[C@@H](CCCNC(=N)N)C(=O)N[C@@H](Cc1ccc(O)cc1)C(N)=O)[C@@H](C)O [BL]
Second: CC[C@H](C)[C@H](NC(=O)[C@H](Cc1ccc(O)cc1)NC(=O)[C@H](CCCNC(=N)N)NC(=O)[C@H](CCCNC(=N)N)NC(=O)[C@H](CC(C)C)NC(=O)[C@H](CC(=O)O)NC(=O)[C@H](C)NC(=O)[C@H](C)NC(=O)[C@H](Cc1ccc(O)cc1)NC(=O)[C@H](CCC(N)=O)NC(=O)[C@H](C)NC(=O)[C@H](CCSC)NC(=O)[C@H](CCCCNC(=O)COCCOCCNC(=O)COCCOCCNC(=O)CC[C@H](NC(=O)CCCCCCCCCCCCCCCCC(=O)O)C(=O)O)NC(=O)[C@H](CCC(=O)O)NC(=O)[C@@H]1CCCN1C(=O)[C@@H](NC(=O)[C@H](C)NC(=O)[C@H](CC(N)=O)NC(=O)[C@H](CC(=O)O)NC(=O)CNC(=O)[C@@H]1CCCN1C(=O)[C@H](Cc1ccc(O)cc1)NC(=O)[C@@H](NC(=O)[C@@H]1CCCN1C(=O)[C@H](CCC(=O)O)NC(=O)[C@@H](N)CC(C)C)C(C)C)[C@@H](C)O)C(=O)N[C@@H](CC(N)=O)C(=O)N[C@@H](CCSC)C(=O)N[C@@H](CC(C)C)C(=O)N[C@H](C(=O)N[C@@H](CCCNC(=N)N)C(=O)N1CCC[C@H]1C(=O)N[C@@H](CCCNC(=N)N)C(=O)N[C@@H](Cc1ccc(O)cc1)C(N)=O)[C@@H](C)O [Compound AZ] (H-LEPVYPGDNATPEK([AEEA-AEEA-γGlu-C18 diacid])MAQYAADLRRYINMLTRPRY-NH2; N-terminus and C-terminus assumed)
The half-life of the first is 2.6-fold higher: 52 h for the first, 20 h for the second.

Compared with `CC[C@H](C)[C@H](NC(=O)[C@H](Cc1ccc(O)cc1)NC(=O)[C@H](CCCNC(=N)N)NC(=O)[C@H](CCCNC(=N)N)NC(=O)[C@H](CC(C)C)NC(=O)[C@H](CC(=O)O)NC(=O)[C@H](CCCCNC(=O)COCCOCCNC(=O)COCCOCCNC(=O)CC[C@H](NC(=O)CCCCCCCCCCCCCCCCC(=O)O)C(=O)O)NC(=O)[C@H](C)NC(=O)[C@H](Cc1ccc(O)cc1)NC(=O)[C@H](CCC(N)=O)NC(=O)[C@H](C)NC(=O)[C@H](CCSC)NC(=O)[C@H](CCC(N)=O)NC(=O)[C@H](CCC(=O)O)NC(=O)[C@@H]1CCCN1C(=O)[C@@H](NC(=O)[C@H](C)NC(=O)[C@H](CC(N)=O)NC(=O)[C@H](CC(=O)O)NC(=O)CNC(=O)[C@@H]1CCCN1C(=O)[C@H](Cc1ccc(O)cc1)NC(=O)[C@@H](NC(=O)[C@@H]1CCCN1C(=O)[C@H](CCC(=O)O)NC(=O)[C@@H](N)CC(C)C)C(C)C)[C@@H](C)O)C(=O)N[C@@H](CC(N)=O)C(=O)N[C@@H](CCSC)C(=O)N[C@@H](CC(C)C)C(=O)N[C@H](C(=O)N[C@@H](CCCNC(=N)N)C(=O)N1CCC[C@H]1C(=O)N[C@@H](CCCNC(=N)N)C(=O)N[C@@H](Cc1ccc(O)cc1)C(N)=O)[C@@H](C)O` [Compound AT] (H-LEPVYPGDNATPEQMAQYAK([AEEA-AEEA-γGlu-C18 diacid])DLRRYINMLTRPRY-NH2; N-terminus and C-terminus assumed), `CC[C@H](C)[C@H](NC(=O)[C@H](Cc1ccc(O)cc1)NC(=O)[C@H](CCCNC(=N)N)NC(=O)[C@H](CCCNC(=N)N)NC(=O)[C@H](CC(C)C)NC(=O)[C@H](CC(=O)O)NC(=O)[C@H](C)NC(=O)[C@H](CCCCNC(=O)COCCOCCNC(=O)COCCOCCNC(=O)CC[C@H](NC(=O)CCCCCCCCCCCCCCCCC(=O)O)C(=O)O)NC(=O)[C@H](Cc1ccc(O)cc1)NC(=O)[C@H](CCC(N)=O)NC(=O)[C@H](C)NC(=O)[C@H](CCSC)NC(=O)[C@H](CCC(N)=O)NC(=O)[C@H](CCC(=O)O)NC(=O)[C@@H]1CCCN1C(=O)[C@@H](NC(=O)[C@H](C)NC(=O)[C@H](CC(N)=O)NC(=O)[C@H](CC(=O)O)NC(=O)CNC(=O)[C@@H]1CCCN1C(=O)[C@H](Cc1ccc(O)cc1)NC(=O)[C@@H](NC(=O)[C@@H]1CCCN1C(=O)[C@H](CCC(=O)O)NC(=O)[C@@H](N)CC(C)C)C(C)C)[C@@H](C)O)C(=O)N[C@@H](CC(N)=O)C(=O)N[C@@H](CCSC)C(=O)N[C@@H](CC(C)C)C(=O)N[C@H](C(=O)N[C@@H](CCCNC(=N)N)C(=O)N1CCC[C@H]1C(=O)N[C@@H](CCCNC(=N)N)C(=O)N[C@@H](Cc1ccc(O)cc1)C(N)=O)[C@@H](C)O` [Compound AU] (H-LEPVYPGDNATPEQMAQYK([AEEA-AEEA-γGlu-C18 diacid])ADLRRYINMLTRPRY-NH2; N-terminus and C-terminus assumed) is 1.7-fold higher in half-life: 34 h for the first, 59 h for the second.

Molecule `CSCC[C@H](NC(=O)[C@H](CCC(N)=O)NC(=O)[C@H](CCC(=O)O)NC(=O)[C@@H]1CCCN1C(=O)[C@@H](NC(=O)[C@H](C)NC(=O)[C@H](CC(N)=O)NC(=O)[C@H](CC(=O)O)NC(=O)CNC(=O)[C@@H]1CCCN1C(=O)[C@H](Cc1ccc(O)cc1)NC(=O)[C@@H](NC(=O)[C@@H]1CCCN1C(=O)[C@H](CCC(=O)O)NC(=O)[C@@H](N)CC(C)C)C(C)C)[C@@H](C)O)C(=O)N[C@@H](C)C(=O)N[C@@H](CCC(N)=O)C(=O)N[C@@H](Cc1ccc(O)cc1)C(=O)N[C@@H](C)C(=O)N[C@@H](C)C(=O)N[C@@H](CC(=O)O)C(=O)N[C@@H](CC(C)C)C(=O)N[C@@H](CCCNC(=N)N)C(=O)N[C@@H](CCCNC(=N)N)C(=O)N[C@@H](Cc1ccc(O)cc1)C(=O)N[C@@H](CCCCNC(=O)COCCOCCNC(=O)COCCOCCNC(=O)CC[C@H](NC(=O)CCCCCCCCCCCCCCCCC(=O)O)C(=O)O)C(=O)N[C@@H](CC(N)=O)C(=O)N[C@@H](CCSC)C(=O)N[C@@H](CC(C)C)C(=O)N[C@H](C(=O)N[C@@H](CCCNC(=N)N)C(=O)N1CCC[C@H]1C(=O)N[C@@H](CCCNC(=N)N)C(=O)N[C@@H](Cc1ccc(O)cc1)C(N)=O)[C@@H](C)O` [Compound AN] (H-LEPVYPGDNATPEQMAQYAADLRRYK([AEEA-AEEA-γGlu-C18 diacid])NMLTRPRY-NH2; N-terminus and C-terminus assumed) has a half-life of 69 h.

From US20150141336A1, “Pancreatic Peptide Compounds and Use” (Novo Nordisk A/S, priority 2012, published 2015)
